According to ChEMBL document CHEMBL5230155, “Recent contributions of quinolines to antimalarial and anticancer drug discovery research” (Eur J Med Chem, 2021):
Each block holds one compound with its values, some of them ahead of it.

Columns and labels:
[1] = tested on: HeLa; assay: Antiproliferative activity against human HeLa cells; type: functional, cell-based
[2] = tested on: KG-1a; assay: Antiproliferative activity against human KG-1a cells; type: functional, cell-based
[3] = tested on: MDA-MB-231; assay: Antiproliferative activity against human MDA-MB-231 cells; type: functional, cell-based
[4] = tested on: Hep 3B2; assay: Cytotoxicity against human Hep3B cells assessed as relative value at 15 uM after 48 hrs by MTS method; type: functional
[5] = Cytotoxicity against human SLMT-1 cells
[6] = tested on: Hep 3B2; assay: Cytotoxicity against human Hep3B cells; type: functional, cell-based
[7] = tested on: MCF7; assay: Antiproliferative activity against human MCF7 cells; type: functional, cell-based
[8] = tested on: G-361; assay: Antiproliferative activity against human G-361 cells; type: functional, cell-based
[9] = tested on: Plasmodium falciparum; assay: Antimalarial activity against CQ-resistant Plasmodium falciparum Dd2; type: functional, organism-based
[10] = tested on: MDA-MB-231; assay: Cytotoxicity against human MDA-MB-231 cells; type: functional, cell-based
[11] = tested on: KG-1; assay: Cytotoxicity against human KG-1 cells; type: functional, cell-based
[12] = tested on: PC-3; assay: Antiproliferative activity against human PC-3 cells; type: functional, cell-based
[13] = tested on: Raji; assay: Cytotoxicity against human Raji cells; type: functional, cell-based
[14] = Antiproliferative activity against HUVEC cells; type: toxicity, cell-based; conditions: human
[15] = tested on: A2780; assay: Antiproliferative activity against cisplatin resistant human A2780 cells; type: functional, cell-based
[16] = tested on: MCF7; assay: Antiproliferative activity against mitoxantrone resistant human MCF7 cells; type: functional, cell-based
[17] = tested on: A2780; assay: Antiproliferative activity against human A2780 cells; type: functional, cell-based
[18] = biological target: Epidermal growth factor receptor (Homo sapiens, UniProt P00533)
[19] = tested on: Plasmodium berghei; assay: Antimalarial activity against liver stage Plasmodium berghei; type: functional, organism-based
[20] = tested on: A-375; assay: Antiproliferative activity against human A-375 cells; type: functional, cell-based
[21] = tested on: NCI-H460; assay: Antiproliferative activity against human NCI-H460 cells; type: functional, cell-based
[22] = tested on: HT-29; assay: Antiproliferative activity against human HT-29 cells; type: functional, cell-based
[23] = tested on: MIA PaCa-2; assay: Antiproliferative activity against human MIA PaCa-2 cells; type: functional, cell-based
[24] = tested on: PANC-1; assay: Antiproliferative activity against human PANC-1 cells; type: functional, cell-based
[25] = biological target: Alkaline phosphatase, germ cell type (Homo sapiens, UniProt P10696); assay: Inhibition of human germ cell alkaline phosphatase
[26] = tested on: HeLa; assay: Cytotoxicity against human HeLa cells at 2.5 uM; type: functional
[27] = tested on: A549; assay: Cytotoxicity against human A549 cells; type: functional, cell-based
[28] = biological target: Phosphatidylinositol 4,5-bisphosphate 3-kinase catalytic subunit gamma isoform (Homo sapiens, UniProt P48736); assay: Inhibition of PI3K gamma (unknown origin)
[29] = tested on: K562; assay: Cytotoxicity against human K562 cells; type: functional, cell-based
[30] = tested on: Plasmodium berghei; assay: Antiplasmodial activity against Plasmodium berghei ANKA infected in mouse assessed as reduction in parasitaemia at 20 mg/kg/day, ip administered for 4 days; type: functional; design: scale not given: the % may be the effect or the level left; conditions: time 4 day
[31] = tested on: Plasmodium berghei; assay: Antimalarial activity against Plasmodium berghei ANKA infected in mouse assessed increase in survival time at 20 mg/kg/day, ip for 4 days; type: functional; conditions: time 4 day
[32] = tested on: Plasmodium falciparum; assay: Antimalarial activity against CQ-sensitive Plasmodium falciparum 3D7; type: functional, organism-based
[33] = tested on: MV4-11; assay: Antiproliferative activity against human MV4-11 cells; type: functional, cell-based
[34] = biological target: Histone-lysine N-methyltransferase, H3 lysine-79 specific (Homo sapiens, UniProt Q8TEK3); assay: Inhibition of DOT1L (unknown origin)
[35] = tested on: Plasmodium falciparum; assay: Antimalarial activity against Plasmodium falciparum 3D7; type: functional, organism-based
[36] = tested on: Plasmodium berghei; assay: Antiplasmodial activity against Plasmodium berghei infected in mouse assessed as reduction in parasitaemia at 200 mg/kg/day, ip administered for 4 days; type: functional; design: scale not given: the % may be the effect or the level left; conditions: time 4 day
[37] = tested on: Plasmodium berghei; assay: Antiplasmodial activity against Plasmodium berghei infected in mouse assessed as increase in mean survival time at 100 mg/kg, po administered for 3 days (reference value: 7.6 day); type: functional; conditions: time 3 day
[38] = tested on: Hemozoin; assay: Inhibition of beta-hematin formation relative to control; conditions: concentration not given here
[39] = tested on: Hemozoin; assay: Inhibition of beta-hematin formation
[40] = tested on: RPMI-8226; assay: Cytotoxicity against human RPMI-8226 cells; type: functional, cell-based
[41] = tested on: HCT-116; assay: Cytotoxicity against human HCT-116 cells; type: functional, cell-based
[42] = tested on: RPMI-8226; assay: Induction of apoptosis in human RPMI-8226 cells assessed as fold increase in cytochrome c level; type: functional
[43] = tested on: RPMI-8226; assay: Induction of apoptosis in human RPMI-8226 cells assessed as fold increase in caspase-3 level; type: functional

Sequence of Phosphatidylinositol 4,5-bisphosphate 3-kinase catalytic subunit gamma isoform (P48736 whole entry, canonical isoform): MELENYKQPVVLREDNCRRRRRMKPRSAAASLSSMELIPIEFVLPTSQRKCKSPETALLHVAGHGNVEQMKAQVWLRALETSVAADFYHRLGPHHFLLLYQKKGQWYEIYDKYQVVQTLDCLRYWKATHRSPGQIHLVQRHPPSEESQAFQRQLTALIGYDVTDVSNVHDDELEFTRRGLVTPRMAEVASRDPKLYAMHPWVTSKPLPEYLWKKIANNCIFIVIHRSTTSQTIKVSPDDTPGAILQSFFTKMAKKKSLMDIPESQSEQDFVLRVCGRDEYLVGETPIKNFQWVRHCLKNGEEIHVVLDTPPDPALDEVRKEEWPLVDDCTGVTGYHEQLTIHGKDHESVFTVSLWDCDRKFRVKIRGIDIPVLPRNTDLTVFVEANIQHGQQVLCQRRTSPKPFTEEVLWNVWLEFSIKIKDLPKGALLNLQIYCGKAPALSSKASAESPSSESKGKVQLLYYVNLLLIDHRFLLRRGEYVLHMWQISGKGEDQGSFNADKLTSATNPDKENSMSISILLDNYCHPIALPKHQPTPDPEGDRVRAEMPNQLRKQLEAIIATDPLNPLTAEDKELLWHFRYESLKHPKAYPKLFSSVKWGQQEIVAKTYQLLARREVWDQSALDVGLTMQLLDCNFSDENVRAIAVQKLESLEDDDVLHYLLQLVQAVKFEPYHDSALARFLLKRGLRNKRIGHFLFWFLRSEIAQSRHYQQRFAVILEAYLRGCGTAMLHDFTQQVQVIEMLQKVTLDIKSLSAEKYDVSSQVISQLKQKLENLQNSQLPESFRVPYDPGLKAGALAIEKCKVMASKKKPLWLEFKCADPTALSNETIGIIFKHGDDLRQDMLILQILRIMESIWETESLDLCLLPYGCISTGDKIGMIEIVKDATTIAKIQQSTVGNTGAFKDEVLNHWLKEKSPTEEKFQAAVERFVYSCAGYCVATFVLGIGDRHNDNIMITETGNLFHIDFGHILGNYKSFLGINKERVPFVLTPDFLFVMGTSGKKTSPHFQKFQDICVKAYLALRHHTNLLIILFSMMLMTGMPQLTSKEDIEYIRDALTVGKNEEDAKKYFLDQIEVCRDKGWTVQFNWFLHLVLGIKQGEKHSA
Sequence of Alkaline phosphatase, germ cell type (P10696 whole entry): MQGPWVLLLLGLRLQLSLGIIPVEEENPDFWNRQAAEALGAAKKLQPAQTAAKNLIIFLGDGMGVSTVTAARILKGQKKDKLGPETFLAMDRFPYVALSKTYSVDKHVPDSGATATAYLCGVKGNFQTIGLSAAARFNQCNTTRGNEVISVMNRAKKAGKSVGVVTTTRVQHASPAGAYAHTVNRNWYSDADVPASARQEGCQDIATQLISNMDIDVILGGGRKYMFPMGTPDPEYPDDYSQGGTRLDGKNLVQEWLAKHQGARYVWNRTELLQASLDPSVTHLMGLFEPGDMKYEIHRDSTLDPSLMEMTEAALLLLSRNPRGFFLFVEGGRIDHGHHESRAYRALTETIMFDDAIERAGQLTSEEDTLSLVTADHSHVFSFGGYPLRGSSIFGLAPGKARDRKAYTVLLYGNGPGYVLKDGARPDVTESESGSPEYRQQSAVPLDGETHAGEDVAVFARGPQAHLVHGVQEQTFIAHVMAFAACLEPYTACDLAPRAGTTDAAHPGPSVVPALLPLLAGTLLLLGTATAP
Sequence of Histone-lysine N-methyltransferase, H3 lysine-79 specific (Q8TEK3 whole entry): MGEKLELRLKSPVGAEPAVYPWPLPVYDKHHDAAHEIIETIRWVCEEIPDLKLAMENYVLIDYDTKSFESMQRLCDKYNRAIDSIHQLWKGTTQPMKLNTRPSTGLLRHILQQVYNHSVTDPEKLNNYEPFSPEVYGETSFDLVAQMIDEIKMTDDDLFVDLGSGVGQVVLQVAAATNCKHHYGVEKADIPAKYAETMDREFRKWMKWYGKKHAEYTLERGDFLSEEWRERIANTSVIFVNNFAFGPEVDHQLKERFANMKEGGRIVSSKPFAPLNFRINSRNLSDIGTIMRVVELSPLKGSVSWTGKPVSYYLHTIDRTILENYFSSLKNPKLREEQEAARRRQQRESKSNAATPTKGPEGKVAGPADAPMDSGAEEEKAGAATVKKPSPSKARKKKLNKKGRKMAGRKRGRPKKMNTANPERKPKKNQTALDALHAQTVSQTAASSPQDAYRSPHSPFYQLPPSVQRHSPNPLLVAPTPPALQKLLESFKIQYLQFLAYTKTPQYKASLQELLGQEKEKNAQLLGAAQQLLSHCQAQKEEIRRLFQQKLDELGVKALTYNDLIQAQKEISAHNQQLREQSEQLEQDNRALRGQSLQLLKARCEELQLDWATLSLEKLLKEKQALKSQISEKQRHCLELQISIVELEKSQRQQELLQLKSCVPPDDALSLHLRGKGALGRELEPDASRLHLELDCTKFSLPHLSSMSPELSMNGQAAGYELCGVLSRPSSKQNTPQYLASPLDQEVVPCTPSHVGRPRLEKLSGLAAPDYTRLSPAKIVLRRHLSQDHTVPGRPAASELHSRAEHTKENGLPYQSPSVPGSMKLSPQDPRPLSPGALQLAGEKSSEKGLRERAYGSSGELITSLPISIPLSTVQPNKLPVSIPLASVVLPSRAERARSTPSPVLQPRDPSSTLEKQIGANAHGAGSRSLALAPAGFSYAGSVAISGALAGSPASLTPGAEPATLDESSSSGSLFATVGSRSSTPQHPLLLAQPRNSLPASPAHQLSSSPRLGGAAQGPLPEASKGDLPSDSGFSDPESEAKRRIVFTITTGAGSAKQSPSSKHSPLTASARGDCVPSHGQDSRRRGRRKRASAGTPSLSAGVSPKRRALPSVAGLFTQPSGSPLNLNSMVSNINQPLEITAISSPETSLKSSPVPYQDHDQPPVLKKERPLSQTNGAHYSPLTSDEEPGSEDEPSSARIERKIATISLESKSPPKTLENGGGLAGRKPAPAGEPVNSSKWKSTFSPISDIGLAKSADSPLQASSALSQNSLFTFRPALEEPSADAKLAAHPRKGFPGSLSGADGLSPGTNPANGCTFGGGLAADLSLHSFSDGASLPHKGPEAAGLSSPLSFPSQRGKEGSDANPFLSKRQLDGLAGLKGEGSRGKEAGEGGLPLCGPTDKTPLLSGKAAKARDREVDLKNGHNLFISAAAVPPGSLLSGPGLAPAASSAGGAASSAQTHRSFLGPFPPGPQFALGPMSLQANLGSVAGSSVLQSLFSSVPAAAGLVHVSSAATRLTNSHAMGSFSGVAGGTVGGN
Sequence of Epidermal growth factor receptor (P00533 whole entry): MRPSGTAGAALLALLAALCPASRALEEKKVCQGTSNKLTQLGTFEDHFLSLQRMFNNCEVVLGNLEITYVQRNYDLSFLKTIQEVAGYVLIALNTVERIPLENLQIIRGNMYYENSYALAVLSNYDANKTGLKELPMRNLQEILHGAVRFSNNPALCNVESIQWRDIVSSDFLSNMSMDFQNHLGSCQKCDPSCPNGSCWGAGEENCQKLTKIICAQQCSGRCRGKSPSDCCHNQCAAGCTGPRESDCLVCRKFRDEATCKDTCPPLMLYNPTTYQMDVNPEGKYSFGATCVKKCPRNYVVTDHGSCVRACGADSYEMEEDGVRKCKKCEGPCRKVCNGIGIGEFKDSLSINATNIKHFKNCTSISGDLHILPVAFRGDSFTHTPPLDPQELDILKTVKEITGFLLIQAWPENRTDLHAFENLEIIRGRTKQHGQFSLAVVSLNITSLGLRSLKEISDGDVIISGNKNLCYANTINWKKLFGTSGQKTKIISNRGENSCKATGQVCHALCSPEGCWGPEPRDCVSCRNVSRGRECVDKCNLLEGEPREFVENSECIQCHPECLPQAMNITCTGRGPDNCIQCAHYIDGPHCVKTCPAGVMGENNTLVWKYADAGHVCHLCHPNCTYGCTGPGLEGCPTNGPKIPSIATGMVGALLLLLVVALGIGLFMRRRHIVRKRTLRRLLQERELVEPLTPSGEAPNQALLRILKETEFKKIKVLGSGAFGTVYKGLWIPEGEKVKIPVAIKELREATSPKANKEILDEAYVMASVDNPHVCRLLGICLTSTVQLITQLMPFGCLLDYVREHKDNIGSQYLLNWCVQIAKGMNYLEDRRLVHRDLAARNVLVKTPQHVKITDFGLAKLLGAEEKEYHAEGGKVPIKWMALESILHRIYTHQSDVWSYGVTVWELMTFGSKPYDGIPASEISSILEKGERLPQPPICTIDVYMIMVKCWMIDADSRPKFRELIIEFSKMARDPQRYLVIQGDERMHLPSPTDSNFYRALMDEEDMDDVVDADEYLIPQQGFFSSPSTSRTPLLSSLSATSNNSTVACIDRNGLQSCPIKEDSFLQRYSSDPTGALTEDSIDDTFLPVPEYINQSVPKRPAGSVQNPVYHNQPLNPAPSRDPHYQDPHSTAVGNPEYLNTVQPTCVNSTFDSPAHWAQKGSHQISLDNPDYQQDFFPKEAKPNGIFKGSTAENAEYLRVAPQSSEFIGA

Compound: O=S(=O)(Oc1cccc2cccnc12)c1ccc(CBr)cc1
fold change (FC) [4]: 0.25

Compound: O=S(=O)(Nc1cccc2cccnc12)c1cccc2cccnc12
IC50 [5]: 1230 nM
IC50 [6]: 1230 nM
IC50 ([7]; Homo sapiens, MCF7): 1230 nM
fold change (FC) [4]: 0.23

Compound: CN(C)CCNc1cc(/C=C/c2ccc(Br)cc2)nc2ccccc12
IC50 [9]: 33 nM

Compound: COc1cc(NC(C)CCCN)c2ncccc2c1 (stereo not given) [PRIMAQUINE]
IC50 [19]: 1100 nM

Compound: COc1ccc(/C=C\c2cc(OC)c(OC)c(OC)c2)cc1O [COMBRETASTATIN A4]
IC50 [14]: 1560 nM
IC50 [20]: 180 nM
IC50 [21]: 180 nM
IC50 [22]: 180 nM
IC50 [23]: 180 nM
IC50 [24]: 180 nM

Compound: CCOc1ccc(Nc2cc(C)nc3ccc(Cl)cc23)cc1
Activity [26]: 8%

Compound: COc1ccc(-c2cc(C(=O)N/N=C(\C=C\c3ccc(Cl)cc3)c3ccc(N)cc3)c3ccccc3n2)cc1
IC50 [27]: 1910 nM
IC50 [28]: 52 nM
IC50 [29]: 1910 nM

Compound: COc1ccc(/C=C/c2cc(Nc3cc(OC)c(OC)c(OC)c3)c3c(OC)c(OC)c(OC)cc3n2)cc1OC
IC50 [14]: 7820 nM
IC50 ([7]; Homo sapiens, MCF7): 500 nM
IC50 [15]: 500 nM
IC50 [16]: 500 nM
IC50 [17]: 500 nM

Compound: CN(C)CCNc1cc(/C=C/c2cccs2)nc2ccccc12
IC50 [9]: 33 nM

Compound: COc1cc(/C=C/C(=O)c2cccc(Nc3ccnc4cc(Cl)ccc34)c2)cc(OC)c1OC
Activity [30]: 1.4%
Time [31]: 24.6 days

Compound: COc1cc(C)c2c(Oc3ccc(F)c(F)c3)c(OC)cc(NC(C)CCON=C(C)C)c2n1 (stereo not given)
IC50 [19]: 5400 nM
IC50 [32]: 380 nM

Compound: CCN(CC)CCCC(C)Nc1ccnc2cc(Cl)ccc12 (stereo not given) [CHLOROQUINE]
Activity [30]: 0.32%
EC50 [35]: 165 nM
Activity [36]: 100%
Time [31]: 24.99 days
Time [37]: 26.2 days
inhibition [38]: 52.1%
IC50 [39]: 890000 nM

Compound: COc1cccc2c1C(=O)c1c(O)c3c(c(O)c1C2=O)C[C@@](O)(C(=O)CO)C[C@@H]3O[C@H]1C[C@H](N)[C@H](O)[C@H](C)O1 [DOXORUBICIN]
IC50 [5]: 270 nM
IC50 [40]: 410 nM
IC50 [6]: 270 nM
IC50 ([7]; mcf7): 1980 nM
IC50 [41]: 410 nM
IC50 [8]: 2440 nM

Compound: COc1ccc(C(=O)/C=C/c2cc3ccccc3nc2Cl)cc1OC
inhibition [38]: 61.3%

Compound: Cc1ccc2nc(SCc3ccccc3)c(/C=[N+](\[O-])c3ccccc3)cc2c1
IC50 [40]: 450 nM
fold change (FC) [42]: 4
fold change (FC) [43]: 12
IC50 [41]: 450 nM

Compound: Cc1ccc2cccc(OS(=O)(=O)c3ccc(CBr)cc3)c2n1
fold change (FC) [4]: 0.25

Further lines, with some results ahead:

IC50 [1]: 50 nM
IC50 [3]: 540 nM
Compound: Cc1ccc(Nc2nnc(-c3cc(-c4ccc(Br)cc4)nc4ccccc34)o2)cc1
IC50 [2]: 1210 nM

IC50 ([7]; Homo sapiens, MCF7): 2070 nM
Compound: COc1ccc2ccc(F)c(CC(=O)N/N=C/c3cc(OC)c(OC)c(OC)c3)c2n1
IC50 ([8]; read-out: IC50): 2070 nM

IC50 [12]: 1700 nM
Compound: Cc1cc(Nc2ccc(NC(=O)c3ccc(Nc4ccnc5ccccc45)cc3)cc2)nc(N)n1
IC50 [10]: 1700 nM
IC50 [11]: 1700 nM
IC50 [13]: 1700 nM

IC50 ([7]; Homo sapiens, MCF7): 1130 nM
IC50 [15]: 1130 nM
IC50 [17]: 1130 nM
Compound: COc1ccc(Nc2cc(/C=C/c3ccc([N+](=O)[O-])cc3)nc3cc(OC)c(OC)c(OC)c23)cc1OC
IC50 [14]: 7820 nM
IC50 [16]: 1130 nM

IC50 [18]: 37.1 nM
Compound: COc1ccc2nc(Cl)c(/C=C/C(=O)c3ccc(C)cc3)cc2c1

IC50 [25]: < 75 nM
IC50 [12]: 18 nM
Compound: Cc1cc2c(C(=O)Nc3nc4ccccc4s3)cc(O)nc2cc1Cl

IC50 [28]: 197 nM
Compound: Cc1ccc(-c2cc(C(=O)N/N=C(\C=C\c3ccc(Cl)cc3)c3ccc(N)cc3)c3ccccc3n2)cc1
IC50 [27]: 1910 nM
IC50 [29]: 1910 nM

IC50 [25]: < 75 nM
IC50 [12]: 48 nM
Compound: Cc1cc2nc(O)cc(C(=O)Nc3nc4ccccc4s3)c2cc1C

IC50 [33]: 1620 nM
IC50 [34]: 5720 nM
Compound: CCN(CCNC(=O)Nc1ccc(C(C)(C)C)cc1)c1nc(C)cc(Nc2ccc3nc(C)cc(N)c3c2)n1
